Compared with `COc1ccc2c(c1)C1(CC#N)CCC(=O)C=C1CC2` (stereo unspecified), `COc1cccc(-c2ccc3c(c2)C(C)(C)C(=O)N3)c1` is higher in melting point: 133 to 134 °C for the first, 157 to 158 °C for the second.

Compared with `C=C(C)C(=O)OC(C1CCCC1)C(O)(C(F)(F)F)C(F)(F)F` (stereo unspecified), `CC(C)(C)OC(=O)N1C(=O)[C@H](O)[C@@H]1C1CCCCC1` is higher in melting point: 59 °C for the first, 121 to 122 °C for the second.

`CNC(=O)c1cccc2cccc(NC(=O)c3ccc(F)c(F)c3)c12` and `CN1C(C(=O)Nc2cccc(Br)c2)=C(O)c2ccc3ccccc3c2S1(=O)=O` cannot be ordered by melting point: > 250 °C for the first, 268 to 269 °C for the second.

Compared with `O=C(c1cc(-c2ccc(Cl)cc2)c(N2CCOCC2)s1)c1cc(-c2ccc(Cl)cc2)c(N2CCOCC2)s1`, `CC(=O)c1ccc(-c2ccc(Cl)cc2)c(N)c1` is higher in melting point: 135 to 136 °C for the first, 139 to 140 °C for the second.

First: CC(C)c1cccc(N2CC(=O)NC(=O)N2)c1
Second: CC(C)Oc1cccc(C2(C)CN(C)CCC2O)c1 (stereo unspecified)
The melting point of the first is higher: 130 to 132 °C for the first, 75 to 76 °C for the second.

Compared with `CC1(O)C=CC2C3CCC4=CC(=O)CCC4C3C(c3ccc(-c4ccoc4)cc3)CC21C` (stereo unspecified), `CC12CCC3c4ccc(C(=O)O)cc4CCC3C1CCC2C(=O)CCc1ccc(F)cc1` (stereo unspecified) is higher in melting point: 179 °C for the first, 224 to 227 °C for the second.

Compared with `CC(C)(C)OC(=O)Nc1ccccc1NC(=O)c1nc2c(s1)CN(C(=O)OC(C)(C)C)CC2`, `CC(C)(C)OC(=O)Nc1ccc(NC(=O)CCCCC2CCSS2)cc1` (stereo unspecified) is higher in melting point: 188 °C for the first, 190 to 195 °C for the second.

First: CC(C)(C)c1cc(CCC(=O)NCCNc2ccc(C#N)cc2)cc(C(C)(C)C)c1O
Second: CCOC(=O)C(NC(=O)Nc1c(F)cc(F)cc1CCc1cc(C(C)(C)C)c(O)c(C(C)(C)C)c1)c1ccccc1 (stereo unspecified)
The melting point of the first is lower: 146 to 148 °C for the first, 162 to 164 °C for the second.

First: COC(=O)CCCCCc1c(OC)cc(C(C)(C)C)c(O)c1NC(=O)NNC(=O)Nc1cc(OC)cc(C(C)(C)C)c1O
Second: CC(C)(C)c1cc(C(=NNc2ccccc2)c2cccnc2Cl)cc(C(C)(C)C)c1O
The melting point of the first is lower: 157 to 159 °C for the first, 181 °C for the second.

Compared with `CCOc1c(C2=C(C(C)(C)C)C(C)(C)CO2)sc2ccc(O[Si](C)(C)C(C)(C)C)cc12`, `Cc1c(C)c2c(c(C)c1NC(=O)CC(C)(C)C)C(c1ccc(C(C)C)c(OCCO)c1)CO2` (stereo unspecified) is higher in melting point: 64 to 65 °C for the first, 155 to 156 °C for the second.

First: OCc1cccc(Nc2nc(Oc3ccccc3)nc(Oc3ccc(Cl)cc3)n2)c1
Second: OCc1c[nH]c(-c2ccc(OCc3ccccc3)cc2)n1
The melting point of the first is lower: 110 to 114 °C for the first, 183 to 185 °C for the second.

First: Cc1noc(C)c1-c1nn(Cc2ccccc2)c(=O)c2ccccc12
Second: ClCc1ncc(-c2ccccc2)c2ccccc12
The melting point of the first is higher: 186 to 188 °C for the first, 101 to 102 °C for the second.

Compared with `CCc1ccc2c(c1)c1cc(OC)cc3c(=O)c(Cc4cccnc4)cn2c31`, `COc1ccc(CCN2C=CC=C3C2=Nc2cc(C)ccc2S(=O)(=O)N3C)cc1` is higher in melting point: 109 to 110 °C for the first, 128 °C for the second.

First: CS(=O)(=O)Nc1cc([C@@H](O)CNC2CCN(c3ccc(S(=O)(=O)N4CCC[C@@H]4C(=O)OCc4ccccc4)cc3)CC2)ccc1O
Second: CS(=O)(=O)Nc1cc(C(O)CNCCCCCCOCCCCOc2ccc3ccccc3c2)ccc1O (stereo unspecified)
The melting point of the first is lower: 62 to 69 °C for the first, 99.5 to 100 °C for the second.

First: CC(C)(C)c1cc(N=C=O)no1
Second: Cn1c2c(cnc3c([N+](=O)[O-])cccc32)c(=O)n1C(=O)OC(C)(C)C
The melting point of the first is lower: 165 to 167 °C for the first, > 250 °C for the second.

First: CCCSc1ncc(CC(N=C(c2ccccc2)c2ccccc2)C(=O)OCC)n1Cc1ccccc1Cl (stereo unspecified)
Second: CCCN(Cc1ccc(-c2ccccc2-c2nnn[nH]2)cc1)c1nc(OCc2ccccc2)ccc1C(=O)O
The melting point of the first is higher: 178 to 181 °C for the first, 68 to 82 °C for the second.

First: COP(=O)(OC)C(c1ccc(F)cc1)(c1ccccc1F)c1ccccc1Cl (stereo unspecified)
Second: O=C(N(C=Cc1ccc(F)cc1)C=Cc1ccc(F)cc1)C1(O)CSc2ccccc21 (stereo unspecified)
The melting point of the first is lower: 132 °C for the first, 150 to 151 °C for the second.

First: N#Cc1cc(Cl)c(Cl)c(-c2ccc(Cl)cc2)n1
Second: COCc1cc2c(s1)CCc1cc(=O)n(-c3ccc(Cl)cc3)nc1-2
The melting point of the first is lower: 142 to 145 °C for the first, 159 to 160 °C for the second.

First: COCCn1cc(C(=O)O)c2c(Cl)cccc21
Second: CCOC(=O)CCCn1c(=O)[nH]c2ccccc21
The melting point of the first is higher: 142 to 145 °C for the first, 88 °C for the second.

First: c1ccc(COC2COC(c3ccco3)OC2)cc1 (stereo unspecified)
Second: Cn1c(CO)nc2ccc(OCc3ccccc3)nc21
The melting point of the first is lower: 50 to 52 °C for the first, 133 to 135 °C for the second.

First: BrCCCCCCCCCCCCCCCCCCCCBr
Second: CCCCOCc1cc2c3ccccc3[nH]c(=O)n2n1
The melting point of the first is lower: 62 °C for the first, 170 to 172 °C for the second.

First: COc1cc(OCCN2CCOCC2)c(C=O)cc1-c1cccs1
Second: COc1ccccc1N1CCN(CNC(=O)c2cccc(C)c2)CC1
The melting point of the first is lower: 130 to 131 °C for the first, 139 to 142 °C for the second.

First: Cc1noc(NS(=O)(=O)c2ccc(NC(=O)CN)cc2-c2ccc(CC(C)C)cc2)c1C
Second: CCc1nc2c(C)cc(C)nc2n1Cc1ccc(-c2ccccc2S(=O)(=O)Nc2onc(C)c2C)c(CN2CCC(C)(C)C2=O)c1
The melting point of the first is higher: 135 to 138 °C for the first, 95 to 104 °C for the second.

First: COc1c(-c2nnc(C)s2)cc2oc(=O)c(C)c(C)c2c1C
Second: CCCc1ccc(C(O)(c2c(C)cc(C)c(C)c2OC)C(C)C)cc1 (stereo unspecified)
The melting point of the first is higher: 201 to 203 °C for the first, 59 to 60 °C for the second.

Compared with `COC(=O)c1c(C(=O)OC)c(-c2nccnc2C)n(NS(=O)(=O)c2ccc(C)cc2)c1C`, `CCn1nc(OCC(=O)C(C)(C)C)c(-c2ccc(S(C)(=O)=O)cc2)c1-c1ccc(F)cc1` is lower in melting point: 155 to 156 °C for the first, 63 to 66 °C for the second.

First: CNC(CC(C)C)c1nc(-c2ccc3c(c2)Nc2ccccc2S3)cs1 (stereo unspecified)
Second: CC(C)(C)C(=O)c1c[nH]c2ncc(-c3cccc(NS(=O)(=O)c4ccccc4)c3)nc12
The melting point of the first is lower: 146 to 148 °C for the first, 217 to 219 °C for the second.

First: O=C(NC(Cc1ccncc1)C(=O)O)OCc1cc2cc(-c3cccnc3)ccc2o1 (stereo unspecified)
Second: c1ccc(-c2nnc(NCC3CC3)cc2-c2ccncc2)cc1
The melting point of the first is higher: 257 °C for the first, 199 to 200 °C for the second.

First: CC(C)CC(C)(C(=O)NC1CCCCCCCCCCNC1=O)c1cccc(Cl)c1S (stereo unspecified)
Second: O=C(NCC12CC3CC(CC(C3)C1)C2)c1cc(-c2nccnc2N2CCC(C(=O)O)CC2)ccc1Cl
The melting point of the first is higher: 143 to 148 °C for the first, 136 to 140 °C for the second.

First: COc1cccc2c1C(=O)N(CSc1ccccc1)S2(=O)=O
Second: COc1cc(C(C)C)c2c(c1)S(=O)(=O)N(COc1cc(C(F)(F)F)nn1-c1cccc(C(F)(F)F)n1)C2=O
The melting point of the first is higher: 152 to 154 °C for the first, 149 to 150 °C for the second.

First: COC(=O)c1cc(-c2ccc(SC)cc2)nn(CC=Cc2ccc(Cl)cc2)c1=O
Second: N#Cc1ccc(NC(=O)c2ccc(C=O)cc2)cc1
The melting point of the first is lower: 123 to 126 °C for the first, 236 °C for the second.

Compared with `C#CCON=C(C(C)=NOCc1ccccc1C(=COC)C(=O)OC)c1ccc(F)cc1`, `O=C(NCCO)c1ccc(OCC2(O)CCN(Cc3ccccc3)CC2)cc1` is higher in melting point: 91 to 93 °C for the first, 161 °C for the second.

Compared with `O=C1[C@H]2CCC[C@H]2N(C(=O)CN2CCN(c3ccccc3)CC2)c2ccccc2N1Cc1ccccc1` (relative stereo), `NC(=O)C1CN(Cc2nc(-c3ccccc3)c(-c3ccccc3)o2)CCN1CC(=O)Nc1c(Cl)cc(N)cc1Cl` (stereo unspecified) is lower in melting point: 164 to 165 °C for the first, 137 to 139 °C for the second.

Compared with `COc1ccc(C=C(Br)Br)c(OC)c1`, `COCOc1ccccc1C=CC(=O)O` is lower in melting point: 147 to 148 °C for the first, 133 to 134 °C for the second.

First: CCOC(=O)c1cccn1CCN1CCC(=C2c3ccn(C)c3CCn3ccnc32)CC1
Second: COC(=O)c1nc(NC(=O)CCCOc2cccc(CN3CCCCC3)c2)n(C)n1
The melting point of the first is higher: 162 °C for the first, 108 to 110 °C for the second.

Compared with `c1ccc2c(c1)N=C(N1CCCCC1)c1cscc1N2`, `CC(C)=Nc1c2c(nc3ccccc13)CCCC2` is lower in melting point: 157 to 159 °C for the first, 127 to 130 °C for the second.

Compared with `OC1CSC(Oc2cncc(-c3cccnc3F)c2)C(O)C1O` (stereo unspecified), `CC(Cc1n[nH]c(=O)c2ccccc12)c1cccnc1` (stereo unspecified) is lower in melting point: 193 to 196 °C for the first, 142 °C for the second.

First: COP(=O)(O)CC(C)=CC(N)C(=O)O (stereo unspecified)
Second: CC(=O)C1(COC(N)=O)CC2C=CC1C2 (stereo unspecified)
The melting point of the first is higher: 149 to 150 °C for the first, 118 to 119 °C for the second.

Compared with `CC(=O)NC[C@H]1CN(c2ccc3c(c2)OCCCC3=O)C(=O)O1`, `CC1(N2Cc3cc(CNC(=O)c4ccc(Cl)c(Cl)c4)ccc3C2=O)CCC(=O)NC1=O` (stereo unspecified) is higher in melting point: 123 to 128 °C for the first, 220 to 222 °C for the second.

First: CCOc1cc2ncc(C#N)c(Nc3ccc(Sc4nccn4C)c(Cl)c3)c2cc1OCC
Second: O=C1CCC(N2Cc3c(OCc4cccc(Cl)c4Cl)cccc3C2=O)C(=O)N1 (stereo unspecified)
The melting point of the first is higher: 285 to 290 °C for the first, 272 to 274 °C for the second.

First: CCOC(=O)N1CC(C)(C)CSC1=Nc1ccccc1C(C)C
Second: CC(=O)OCCN1CN(C)C(=S)N(c2ccc(C)cc2C)C1
The melting point of the first is higher: 84 to 86 °C for the first, 80 to 83 °C for the second.

First: Cc1ccc(O)c(CNc2nc(NC[C@@H](C)O)nc3c2ncn3C(C)C)c1
Second: COc1nc(C)c(N2CCCn3c2nc2cccc(C(O)C(F)(F)F)c23)c(C)n1 (stereo unspecified)
The melting point of the first is lower: 160 to 161 °C for the first, 296 to 299 °C for the second.

First: CC1COC(c2ccccc2)(c2ccc(N)c([N+](=O)[O-])c2)O1 (stereo unspecified)
Second: O=C1CCC(c2ccc(NC(=O)CCNCCc3ccccc3)cc2)=NN1
The melting point of the first is higher: 155 °C for the first, 130 to 132 °C for the second.

First: CCC(CC)Nc1cc(C(=O)OC)ccc1N1C(=O)CCC1(CO)CCO (stereo unspecified)
Second: COC(=O)c1ccc2c(c1)COC(C(Cl)(Cl)Cl)N2 (stereo unspecified)
The melting point of the first is higher: 141 to 143 °C for the first, 116 to 117 °C for the second.

Compared with `COC(=O)[C@H](Cc1ccc(OS(=O)(=O)C(F)(F)F)c(C2SCCS2)c1)NC(C)=O`, `COC(=O)c1ccc(S(C)(=O)=O)c(C2=NOCC2)c1C` is lower in melting point: 116 to 118 °C for the first, 104 to 106 °C for the second.

First: O=C(Cc1ccc(-c2ccc(C(CC3CCOCC3)c3ccc(S(=O)(=O)C4CC4)cc3)[nH]2)nc1)N1CCC1 (stereo unspecified)
Second: C[C@H](CN(C(=O)C1C2CCC1CC2)c1ccccn1)N1CCN(c2cccc3[nH]ccc23)CC1 (stereo partly specified)
The melting point of the first is lower: 94 to 98 °C for the first, 176 to 179 °C for the second.

First: N#Cc1sc2ncccc2c1Cl
Second: CN1CCC(c2nn(CO)c3ccccc23)CC1
The melting point of the first is higher: 144 to 145 °C for the first, 128 to 130 °C for the second.

Compared with `Fc1ccc(N2CCN(Cc3cn4cc(C(F)(F)F)cc(Cl)c4n3)CC2)cc1`, `Cc1c(S(=O)(=O)C(F)(F)F)cnn1-c1c(Cl)cc(C(F)(F)F)cc1Cl` is lower in melting point: 91 to 97 °C for the first, 83 to 85 °C for the second.

First: CC12CCC3C(CCC4=CC(=O)CCC43C=O)C1CCC2O (stereo unspecified)
Second: N#CN=C1CCCN1C1=CC(CF)(CF)Oc2ccc(C(F)(F)C(F)(F)F)cc21
The melting point of the first is lower: 125 to 127 °C for the first, 207 to 210 °C for the second.
